For 28 compounds, EC50 results are on record in patent publication US20260159528A1, “HETEROCYCLIC COMPOUNDS AS TRIGGERING RECEPTOR EXPRESSED ON MYELOID CELLS 2 AGONISTS AND METHODS OF USE” (Vigil Neuroscience, Inc., priority 2021, published 2026).

The pEC50 is −log10 of the EC50, conventionally taken in molar units.

SMILES strings stand for the structures. pEC50: −log10 of the molar value.

T1 sequence (Q9NZC2 19-230): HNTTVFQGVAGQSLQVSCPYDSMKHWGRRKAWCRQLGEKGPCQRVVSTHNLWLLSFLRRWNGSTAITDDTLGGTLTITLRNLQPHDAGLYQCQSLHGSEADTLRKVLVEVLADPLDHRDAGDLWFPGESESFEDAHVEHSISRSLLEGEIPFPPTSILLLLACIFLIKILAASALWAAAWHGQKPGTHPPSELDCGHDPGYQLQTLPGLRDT
T1 sequence (O43914 22-113 partner): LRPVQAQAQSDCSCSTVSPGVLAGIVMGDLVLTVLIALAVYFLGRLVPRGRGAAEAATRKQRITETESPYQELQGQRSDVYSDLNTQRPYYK

One experiment has as its target T1, human TREM2 (Homo sapiens, UniProt Q9NZC2).
T1 construct: expressed in transfected cells; host or cells: HEK293T
In words: TREM2 agonist potency by cellular Syk phosphorylation (AlphaLisa) in HEK293T-hTREM2 cells. The format is cell-based. As to conditions: Table D-2; HEK293 cells expressing human TREM2 and DAP12; pSyk AlphaLisa. On the procedure: In vitro Measurement of Triggering Receptor Expressed on Myeloid Cells 2 activity using cellular phosphorylation of Spleen Tyrosine Kinase (“Syk”) Assays
Measurement of TREM2 agonist potency was done using a HEK cell line expressing human TREM2 and DAP12 (HEK293T-hTREM2 cells). Binding of small molecules to, and activation of, TREM2 increases the phosphorylation of Syk. The resultant levels of Syk phosphorylation are measured using a commercial AlphaLisa reagent kit. To perform the assay, HEK-hTREM2 cells were plated at 14,000 cells per well in a 384 well plate, in 25 µL of complete growth media and incubated at 37° C., 5% CO2 for 20-24 hours.
Prior to the assay, test compounds were diluted in the 384 well plates in assay buffer and allowed to equilibrate for 30 minutes. Growth media was removed from cell plates by inversion on blotting paper, and 25 μL of test articles in assay buffer was added to cells. Cells were incubated for 45 minutes at room temperature. After 45 minutes, assay buffer was removed and 10 μL of lysis buffer was added. Plates were shaken for 20 minutes at 350 RPM at room temperature. After complete lysis, AlphaLisa reagents were added to the lysate, and fluorescence intensity was measured using a Perkin Elmer Envision plate reader. Intensities were used to generate a standard curve, and % activation was calculated. Curve fitting was performed using Prism v9 software, log(agonist) vs response—variable slope (four parameters), and EC50s were calculated from the curve fit.
The results presented in Table D have been generated with the in vitro assay described above. This assay may be used to test any of the compounds described herein to assess and characterize a compound's ability to act as an agonist of TREM2.
The compound `C[C@@H]1CN(c2nc(-c3ccc(C(F)(F)F)cc3F)c3c(n2)nc(N(C)C)n3C)C[C@H](c2cnn(C3CC3)c2)O1` [Compound I-283, 2-((2S,6R)-2-(1-cyclopropyl-1H-pyrazol-4-yl)-6-methylmorpholino)-6-(2-fluoro-4-(trifluoromethyl)phenyl)-N,N,7-trimethyl-7H-purin-8-amine] gave a pEC50 of at least 7.30.
Same read-out and setting: with `CNc1nc2nc(N3C[C@@H](C)O[C@@H](c4cnn(C5CC5)c4)C3)nc(-c3ccc(Cl)cc3F)c2s1` (single isomer, unassigned) [Compound I-94] the figure was 6.30 to 7.30; with `COCn1cc([C@H]2CN(c3nc(-c4ccc(C(F)(F)F)cc4F)c4sc(N(C)C)nc4n3)C[C@@H](C)O2)cn1` [Compound I-149, 7-[2-fluoro-4-(trifluoromethyl)phenyl]-5-[(2S,6R)-2-[1-(methoxymethyl)pyrazol-4-yl]-6-methyl-morpholin-4-yl]-N,N-dimethyl-thiazolo[4,5-d]pyrimidin-2-amine], 6.30 to 7.30.
On to `Cc1cc(C2CCCN(c3nc(-c4ccc(C(F)(F)F)cc4F)c4sc(N(C)C)nc4n3)C2)ccn1` (racemic) [Compound I-196, 7-(2-fluoro-4-(trifluoromethyl)phenyl)-N,N-dimethyl-5-(3-(2-methylpyridin-4-yl)piperidin-1-yl)thiazolo[4,5-d]pyrimidin-2-amine], for which the pEC50 is 6.30 to 7.30.
The same measure, in the same setting: with `CN(C)c1nc2nc([C@H]3CCO[C@@H](c4cnn(C5CC5)c4)C3)nc(-c3ccc(Cl)cc3F)c2s1` (single isomer, unassigned) [Compound I-79] the figure was at least 7.30.
On the same count and under the same terms, to `CO[C@H]1CCN(c2nc3nc([C@H]4CCO[C@@H](c5cnn(C6CC6)c5)C4)nc(-c4ccc(C(F)(F)F)cc4F)c3s2)C1` [Compound I-165, 5-[(2R)-2-(1-cyclopropylpyrazol-4-yl)tetrahydropyran-4-yl]-7-[2-fluoro-4-(trifluoromethyl)phenyl]-2-[(3S)-3-methoxypyrrolidin-1-yl]thiazolo[4,5-d]pyrimidine] belongs 6.30 to 7.30; to `CC(C)n1ncc2c(-c3ccc(F)cc3F)nc(N3C[C@@H](C)O[C@@H](c4cnn(C5CC5)c4)C3)nc21` [Compound I-139], 5.52 to 6.30.
The same measure, in the same setting: to `CC(C)n1cc2c(-c3ccc(F)cc3F)nc(N3C[C@@H](C)O[C@@H](c4cnn(C5CC5)c4)C3)nc2n1` [Compound I-129, (2S,6R)-2-(1-cyclopropyl-1H-pyrazol-4-yl)-4-(4-(2,4-difluorophenyl)-2-isopropyl-2H-pyrazolo[3,4-d]pyrimidin-6-yl)-6-methylmorpholine] belongs 6.30 to 7.30.
The compound `Cc1cc([C@H]2C[C@H](c3nc(-c4ccc(F)cc4F)c4sc(N(C)C)nc4n3)CCO2)ccn1` [Compound I-269, 7-(2,4-difluorophenyl)-N,N-dimethyl-5-[(2R,4R)-2-(2-methyl-4-pyridyl)tetrahydropyran-4-yl]thiazolo[4,5-d]pyrimidin-2-amine] showed a pEC50 of 6.30 to 7.30.
On the same count and under the same terms, with `CN(C)c1nc2nc(C3CCOC(c4ccc(=O)n(C)c4)C3)nc(-c3ccc(F)cc3F)c2s1` (racemic) [Compound I-288, 5-[4-[7-(2,4-difluorophenyl)-2-(dimethylamino)thiazolo[4,5-d]pyrimidin-5-yl]tetrahydropyran-2-yl]-1-methyl-pyridin-2-one] the figure was at least 7.30; with `CN(C)c1nc2nc(N3CCC(F)(F)[C@H](c4cnn(C5CC5)c4)C3)nc(-c3ccc(C(F)(F)F)cc3F)c2s1` (single isomer, unassigned) [Compound I-200], 6.30 to 7.30; with `C[C@@H]1CN(c2nc(-c3ccc(Cl)cc3F)c3sc(N(C)CC4CC4)nc3n2)C[C@H](c2cnn(C3CC3)c2)O1` [Compound I-109, 7-(4-chloro-2-fluoro-phenyl)-N-(cyclopropylmethyl)-N-methyl-5-[(2S,6R)-2-(1-cyclopropylpyrazol-4-yl)-6-methyl-morpholin-4-yl]thiazolo[4,5-d]pyrimidin-2-amine], 6.30 to 7.30.
Same read-out and setting: to `COCn1cc([C@H]2CN(c3nc(-c4ccc(F)cc4F)c4sc(N(C)C)nc4n3)C[C@@H](C)O2)cn1` [Compound I-230, 7-(2,4-difluorophenyl)-5-[(2S,6R)-2-[1-(methoxymethyl)pyrazol-4-yl]-6-methyl-morpholin-4-yl]-N,N-dimethyl-thiazolo[4,5-d]pyrimidin-2-amine] belongs at least 7.30; to `C[C@@H]1CN(c2nc(-c3c(F)cc(F)cc3F)c3sc(N(C)C)nc3n2)C[C@H](c2cnn(C3CC3)c2)O1` [Compound I-240, 5-[(2S,6R)-2-(1-cyclopropylpyrazol-4-yl)-6-methyl-morpholin-4-yl]-N,N-dimethyl-7-(2,4,6-trifluorophenyl)thiazolo[4,5-d]pyrimidin-2-amine], at least 7.30.
As for `CN(C)c1nc2nc(N3CCC(F)(F)C(c4cnn(C5CC5)c4)C3)nc(-c3ccc(C(F)(F)F)cc3F)c2s1` (racemic) [Compound I-185, 5-(3-(1-cyclopropyl-1H-pyrazol-4-yl)-4,4-difluoropiperidin-1-yl)-7-(2-fluoro-4-(trifluoromethyl)phenyl)-N,N-dimethylthiazolo[4,5-d]pyrimidin-2-amine], the pEC50 is 6.30 to 7.30.
Same read-out and setting: with `CCN(C)c1nc2nc(N3C[C@@H](C)O[C@@H](c4cnn(C5CC5)c4)C3)nc(-c3ccc(Cl)cc3F)c2s1` (single isomer, unassigned) [Compound I-119] the figure was 5.52 to 6.30.
Same read-out and setting: to `CN(C)c1nc2nc([C@H]3CCO[C@@H](c4cnn(C5CC5)c4)C3)nc(C3CCCCC3)c2s1` (single isomer, unassigned) [Compound I-174] belongs 5.52 to 6.30; to `CN(C)c1nc2nc([C@@H]3CCO[C@@H](c4ccc(=O)n(C)c4)C3)nc(-c3ccc(F)cc3F)c2s1` (racemic) [Compound I-289, 5-[(2R,4R)-4-[7-(2,4-difluorophenyl)-2-(dimethylamino)thiazolo[4,5-d]pyrimidin-5-yl]tetrahydropyran-2-yl]-1-methyl-pyridin-2-one], 6.30 to 7.30; to `CN(c1nc2nc([C@H]3CCO[C@@H](c4cnn(C5CC5)c4)C3)nc(-c3ccc(F)cc3F)c2n1C)C1CC1` [Compound I-298], 6.30 to 7.30.
Consider `CC(=O)N(C)c1nc2nc(N3C[C@@H](C)O[C@@H](c4cnn(C5CC5)c4)C3)nc(-c3ccc(Cl)cc3F)c2s1` (single isomer, unassigned) [Compound I-99], for which the negative logarithm of the EC50 (pEC50) is 6.30 to 7.30.
Consider `CO[C@H]1CCN(c2nc3nc(N4C[C@@H](C)O[C@@H](c5cnn(C6CC6)c5)C4)nc(-c4ccc(F)cc4F)c3s2)C1` [Compound I-224, (2S,6R)-2-(1-cyclopropylpyrazol-4-yl)-4-[7-(2,4-difluorophenyl)-2-[(3S)-3-methoxypyrrolidin-1-yl]thiazolo[4,5-d]pyrimidin-5-yl]-6-methyl-morpholine], for which the pEC50 was at least 7.30.
The same measure, in the same setting: to `C[C@@H]1CN(c2nc(-c3ccc(Cl)cc3F)c3sc(N(C)CCF)nc3n2)C[C@H](c2cnn(C3CC3)c2)O1` (single isomer, unassigned) [Compound I-114] belongs 6.30 to 7.30; to `C[C@@H]1CN(c2nc(-c3ccc(F)cc3F)c3sc(N(C)C)nc3n2)C[C@H](c2cnn(C(F)F)c2)O1` [Compound I-235, 5-((2S,6R)-2-(1-(difluoromethyl)-1H-pyrazol-4-yl)-6-methylmorpholino)-7-(2,4-difluorophenyl)-N,N-dimethylthiazolo[4,5-d]pyrimidin-2-amine], at least 7.30; to `CO[C@@H]1CCN(c2nc3nc(N4C[C@@H](C)O[C@@H](c5cnn(C6CC6)c5)C4)nc(-c4ccc(F)cc4F)c3s2)C1` [Compound I-221, (2S,6R)-2-(1-cyclopropyl-1H-pyrazol-4-yl)-4-(7-(2,4-difluorophenyl)-2-((R)-3-methoxypyrrolidin-1-yl)thiazolo[4,5-d]pyrimidin-5-yl)-6-methylmorpholine], at least 7.30.
As for `C/N=c1/sc2c(-c3ccc(Cl)cc3F)nc(N3C[C@@H](C)O[C@@H](c4cnn(C5CC5)c4)C3)nc2n1CCF` [Compound I-159, (E)-7-(4-chloro-2-fluoro-phenyl)-3-(2-fluoroethyl)-N-methyl-5-[(2S,6R)-2-(1-cyclopropylpyrazol-4-yl)-6-methyl-morpholin-4-yl]thiazolo[4,5-d]pyrimidin-2-imine], the negative logarithm of the EC50 (pEC50) was 5.52 to 6.30.
On to `CN(C)c1nc2nc(N3CCC(F)(F)[C@@H](c4cnn(C5CC5)c4)C3)nc(-c3ccc(C(F)(F)F)cc3F)c2s1` (single isomer, unassigned) [Compound I-199], for which the negative logarithm of the EC50 (pEC50) was 6.30 to 7.30.
For `Fc1cc(C(F)(F)F)ccc1-c1nc([C@@H]2CCO[C@@H](c3cnn(C4CC4)c3)C2)nc2nc(N3CCC3)sc12` (single isomer, unassigned) [Compound I-248], the pEC50 was 6.30 to 7.30.

Still in this experiment, the particulars now being: Table D; HEK293 cells expressing human TREM2 and DAP12; pSyk AlphaLisa.
`Cc1nc2nc([C@H]3CCO[C@@H](c4cnn(C5CC5)c4)C3)nc(-c3ccc(F)cc3F)c2s1` [Compound 4, 5-((2R,4S)-2-(1-cyclopropyl-1H-pyrazol-4-yl)tetrahydro-2H-pyran-4-yl)-7-(2,4-difluorophenyl)-2-methylthiazolo[4,5-d]pyrimidine]: the pEC50 was 6.30 to 7.30.
